The text below walks through data of PubChem BioAssay AID1259407 (Chemical Carcinogenesis Research Information System (CCRIS), 2018).

The structures appear in SMILES notation. Calls of active or inactive are those of the source. No rule for the calls is given here.

For the data set, the system named is CCRIS mutagenicity, Ames/micronucleus/aberration tests. As to the kind of experiment: CCRIS mutagenicity studies.

Consider `CCOC(C)=O`, for which the mutagenic call by setting is: (End Point: IN VITRO CHROMOSOMAL ABERRATIONS, Test System: CHO-LB CELLS, Metabolic Activation: NONE) “inactive; negative”; (End Point: IN VITRO CHROMOSOMAL ABERRATIONS, Test System: CHO-LB CELLS, Metabolic Activation: RAT, LIVER, S-9, AROCLOR 1254) “inactive; negative”; (End Point: IN VIVO MICRONUCLEUS, Test System: BONE MARROW POLYCHROMATIC ERYTHROCYTES, Species: MOUSE, Strain/Sex: DDY/MALE, Route: IP) “inactive; negative”; (Test System: AMES SALMONELLA TYPHIMURIUM, Strain/Indicator: TA97, Metabolic Activation: HAMSTER, LIVER, S-9, AROCLOR 1254 (10 OR 30%), Method: PREINCUBATION) “inactive; negative”; (Test System: AMES SALMONELLA TYPHIMURIUM, Strain/Indicator: TA97, Metabolic Activation: NONE, Method: PREINCUBATION) “inactive; negative”; (Test System: AMES SALMONELLA TYPHIMURIUM, Strain/Indicator: TA97, Metabolic Activation: RAT, LIVER, S-9, AROCLOR 1254 (10 OR 30%), Method: PREINCUBATION) “inactive; negative”. In addition, the mutagenic call is “inactive; negative” (Test System: AMES SALMONELLA TYPHIMURIUM, Strain/Indicator: TA98, Metabolic Activation: HAMSTER, LIVER, S-9, AROCLOR 1254 (10 OR 30%), Method: PREINCUBATION); “inactive; negative” (Test System: AMES SALMONELLA TYPHIMURIUM, Strain/Indicator: TA98, Metabolic Activation: NONE, Method: PREINCUBATION); “inactive; negative” (Test System: AMES SALMONELLA TYPHIMURIUM, Strain/Indicator: TA98, Metabolic Activation: RAT, LIVER, S-9, AROCLOR 1254 (10 OR 30%), Method: PREINCUBATION); “inactive; negative” (Test System: AMES SALMONELLA TYPHIMURIUM, Strain/Indicator: TA98, Metabolic Activation: RAT, LIVER, S-9, PHENOBARBITAL AND BETA-NAPHTHOFLAVONE, Method: PREINCUBATION); “inactive; negative” (Test System: AMES SALMONELLA TYPHIMURIUM, Strain/Indicator: TA100, Metabolic Activation: HAMSTER, LIVER, S-9, AROCLOR 1254 (10 OR 30%), Method: PREINCUBATION); “inactive; negative” (Test System: AMES SALMONELLA TYPHIMURIUM, Strain/Indicator: TA100, Metabolic Activation: NONE, Method: PREINCUBATION). Moreover, the mutagenic call is, setting by setting: (Test System: AMES SALMONELLA TYPHIMURIUM, Strain/Indicator: TA100, Metabolic Activation: RAT, LIVER, S-9, AROCLOR 1254 (10 OR 30%), Method: PREINCUBATION) “inactive; negative”; (Test System: AMES SALMONELLA TYPHIMURIUM, Strain/Indicator: TA100, Metabolic Activation: RAT, LIVER, S-9, PHENOBARBITAL AND BETA-NAPHTHOFLAVONE, Method: PREINCUBATION) “inactive; negative”; (Test System: AMES SALMONELLA TYPHIMURIUM, Strain/Indicator: TA102, Metabolic Activation: NONE, Method: PREINCUBATION) “inactive; negative”; (Test System: AMES SALMONELLA TYPHIMURIUM, Strain/Indicator: TA102, Metabolic Activation: RAT, LIVER, S-9, PHENOBARBITAL AND BETA-NAPHTHOFLAVONE, Method: PREINCUBATION) “inactive; negative”; (Test System: AMES SALMONELLA TYPHIMURIUM, Strain/Indicator: TA104, Metabolic Activation: NONE, Method: PREINCUBATION) “inactive; negative”; (Test System: AMES SALMONELLA TYPHIMURIUM, Strain/Indicator: TA104, Metabolic Activation: RAT, LIVER, S-9, PHENOBARBITAL AND BETA-NAPHTHOFLAVONE, Method: PREINCUBATION) “inactive; negative”. Further, the mutagenic call runs as follows: (Test System: AMES SALMONELLA TYPHIMURIUM, Strain/Indicator: TA1535, Metabolic Activation: HAMSTER, LIVER, S-9, AROCLOR 1254 (10 OR 30%), Method: PREINCUBATION) “inactive; negative”; (Test System: AMES SALMONELLA TYPHIMURIUM, Strain/Indicator: TA1535, Metabolic Activation: NONE, Method: PREINCUBATION) “inactive; negative”; (Test System: AMES SALMONELLA TYPHIMURIUM, Strain/Indicator: TA1535, Metabolic Activation: RAT, LIVER, S-9, AROCLOR 1254 (10 OR 30%), Method: PREINCUBATION) “inactive; negative”; (Test System: AMES SALMONELLA TYPHIMURIUM, Strain/Indicator: TA1535, Metabolic Activation: RAT, LIVER, S-9, PHENOBARBITAL AND BETA-NAPHTHOFLAVONE, Method: PREINCUBATION) “inactive; negative”; (Test System: AMES SALMONELLA TYPHIMURIUM, Strain/Indicator: TA1537, Metabolic Activation: HAMSTER, LIVER, S-9, AROCLOR 1254 (30%), Method: PREINCUBATION) “inactive; negative”; (Test System: AMES SALMONELLA TYPHIMURIUM, Strain/Indicator: TA1537, Metabolic Activation: NONE, Method: PREINCUBATION) “inactive; negative”. Further, the mutagenic call is “inactive; negative” (Test System: AMES SALMONELLA TYPHIMURIUM, Strain/Indicator: TA1537, Metabolic Activation: RAT, LIVER, S-9, AROCLOR 1254 (30%), Method: PREINCUBATION); “inactive; negative” (Test System: AMES SALMONELLA TYPHIMURIUM, Strain/Indicator: TA1537, Metabolic Activation: RAT, LIVER, S-9, PHENOBARBITAL AND BETA-NAPHTHOFLAVONE, Method: PREINCUBATION); “inactive; negative” (Test System: E. COLI, Strain/Indicator: WP2UVRA/PKM101, Metabolic Activation: NONE, Method: PREINCUBATION); “inactive; negative” (Test System: E. COLI, Strain/Indicator: WP2UVRA/PKM101, Metabolic Activation: RAT, LIVER, S-9, PHENOBARBITAL AND BETA-NAPHTHOFLAVONE, Method: PREINCUBATION); “inactive; negative” (Test System: E. COLI, Strain/Indicator: WP2UVRA, Metabolic Activation: NONE, Method: PREINCUBATION); “inactive; negative” (Test System: E. COLI, Strain/Indicator: WP2UVRA, Metabolic Activation: RAT, LIVER, S-9, PHENOBARBITAL AND BETA-NAPHTHOFLAVONE, Method: PREINCUBATION).

As to `C#C[C@]1(O)CC[C@H]2[C@@H]3CCC4=CC(=O)CC[C@@H]4[C@H]3CC[C@@]21CC`, the mutagenic call reads like this: (End Point: IN VITRO CHROMOSOMAL ABERRATIONS, Test System: HUMAN LYMPHOCYTES, Metabolic Activation: NONE) “active; positive at two higher doses (structural changes)”; (End Point: IN VITRO CHROMOSOMAL ABERRATIONS, Test System: HUMAN LYMPHOCYTES, Metabolic Activation: RAT, LIVER, S-9, PHENOBARBITONE) “active; positive at all dose levels (structural changes)”; (Test System: AMES SALMONELLA TYPHIMURIUM, Strain/Indicator: TA98, Metabolic Activation: MOUSE, LIVER, S-9, Method: STANDARD PLATE) “inactive; negative”; (Test System: AMES SALMONELLA TYPHIMURIUM, Strain/Indicator: TA98, Metabolic Activation: NONE, Method: STANDARD PLATE) “inactive; negative”; (Test System: AMES SALMONELLA TYPHIMURIUM, Strain/Indicator: TA98, Metabolic Activation: RAT, LIVER, S-9, AROCLOR 1254, Method: STANDARD PLATE) “inactive; negative”; (Test System: AMES SALMONELLA TYPHIMURIUM, Strain/Indicator: TA100, Metabolic Activation: MOUSE, LIVER, S-9, Method: STANDARD PLATE) “inactive; negative”. Further, the mutagenic call is, setting by setting: (Test System: AMES SALMONELLA TYPHIMURIUM, Strain/Indicator: TA100, Metabolic Activation: NONE, Method: STANDARD PLATE) “inactive; negative”; (Test System: AMES SALMONELLA TYPHIMURIUM, Strain/Indicator: TA100, Metabolic Activation: RAT, LIVER, S-9, AROCLOR 1254, Method: STANDARD PLATE) “inactive; negative”; (Test System: AMES SALMONELLA TYPHIMURIUM, Strain/Indicator: TA1535, Metabolic Activation: MOUSE, LIVER, S-9, Method: STANDARD PLATE) “inactive; negative”; (Test System: AMES SALMONELLA TYPHIMURIUM, Strain/Indicator: TA1535, Metabolic Activation: NONE, Method: STANDARD PLATE) “inactive; negative”; (Test System: AMES SALMONELLA TYPHIMURIUM, Strain/Indicator: TA1535, Metabolic Activation: RAT, LIVER, S-9, AROCLOR 1254, Method: STANDARD PLATE) “inactive; negative”; (Test System: AMES SALMONELLA TYPHIMURIUM, Strain/Indicator: TA1537, Metabolic Activation: MOUSE, LIVER, S-9, Method: STANDARD PLATE) “inactive; negative”. Besides, the mutagenic call runs as follows: (Test System: AMES SALMONELLA TYPHIMURIUM, Strain/Indicator: TA1537, Metabolic Activation: NONE, Method: STANDARD PLATE) “inactive; negative”; (Test System: AMES SALMONELLA TYPHIMURIUM, Strain/Indicator: TA1537, Metabolic Activation: RAT, LIVER, S-9, AROCLOR 1254, Method: STANDARD PLATE) “inactive; negative”; (Test System: AMES SALMONELLA TYPHIMURIUM, Strain/Indicator: TA1538, Metabolic Activation: MOUSE, LIVER, S-9, Method: STANDARD PLATE) “inactive; negative”; (Test System: AMES SALMONELLA TYPHIMURIUM, Strain/Indicator: TA1538, Metabolic Activation: NONE, Method: STANDARD PLATE) “inactive; negative”; (Test System: AMES SALMONELLA TYPHIMURIUM, Strain/Indicator: TA1538, Metabolic Activation: RAT, LIVER, S-9, AROCLOR 1254, Method: STANDARD PLATE) “inactive; negative”.
